From patent US7879817B2, “Hyaluronic acid derivative and drug containing the same” (priority 2004, dated 2011)

Key:
[1] = Sustained release property in the rabbit knee joint (residual ratio in synovial fluid and synovium); settings: intra-articular
[2] = system: 1% silver nitrate-induced pain model; test: 1% silver nitrate-induced pain model in rats
Description: As General anesthesia, inhalation of isoflurane (Forane (registered trade mark), Dainippon Pharmaceutical Co., Ltd., concentration 3.0%, flow rate 2.0 liters/min) filled in a small animal anesthetizer (TK-4, manufactured by BioMachinery Co., Ltd.) was employed.
Rats (Crj:SD (SPF), male, 6-weeks-old) were fixed in the supine position under ether anesthesia, and a wide area around the knee joint of the left hind paw was shaved with an electric clipper. After disinfecting the area around the joint by spraying 70% alcohol, 1% silver nitrate solution was administered into the knee joint cavity of the left hind paw at a dose of 50 μl/joint using a 29 G needle-tipped syringe for insulin use (manufactured by Terumo Corp.).
Regarding the administration method, as in the case of algesic substances, the area around the joint was disinfected by spraying 70% alcohol under inhalation anesthesia by isoflurane, and each test substance was administered into the knee joint cavity of the left hind paw at a dose of […] using a 29 G needle-tipped syringe for insulin use (n=5).
The walking of each group was visually observed and scored by using the following pain score table which was figured walking in score under blinded conditions.
Score • 0: Normal (includes nearly normal) • 1: Mild claudication • 2: Severe claudication • 3: Walking on three legs
In addition, the weight loading on the silver nitrate-injected paw (left hind paw) was measured by using a weighting activity analgesia meter (manufactured by Tokken Inc.), and the weight loading rate was calculated by dividing the measured value by the body weight.
Test substances were orally administered by using a sonde for oral administration to rat (manufactured by Fuchigami Kikai) at a dose of 1 ml/head.
In FIG. 6, the “Diclofenac Na (p.o.) 50 mg/kg” corresponds to the above-described (i) (high dose group), and the “Diclofenac Na (p.o.) 1 mg/kg” corresponds to the above-described (ii) (low dose group).

Filter pass through test = assay type: physicochemical; settings: 1.0% by weight in PBS, 0.45 μm porous filter (25 mm in diameter), 24° C., 5.0 kg/cm^2
Protocol: PBS in which each substance to be tested was dissolved to a concentration of 1.0% by weight was prepared. At a temperature of 24° C. under pressure of 5.0 kg/cm^2, each solution of the substances to be tested prepared in the following examples was passed through a 0.45 μm porous filter (25 mm in diameter), and the passed amount (ml) per 1 minute was measured A case in which 2 ml or more was passed is shown by “A”, and a case in which less than 2 ml was passed by “B”, and a case in which none passed by “C”.

[3] = Appearance of the 1.0% by weight solution in PBS; assay type: physicochemical; settings: dissolved in PBS to 1.0% by weight
[4] = intra-articular injection 24 hours after 1% silver nitrate, in comparison with PBS

CC(C(=O)O)c1cccc(C(=O)c2ccccc2)c1 (centres unmarked) [KP, ketoprofen]
time until KP disappeared from the synovial fluid and synovium [1]: ≤ 6 h
time until KP disappeared from the synovium [1]: ≤ 6 h

O=C(O)Cc1ccccc1Nc1c(Cl)cccc1Cl [diclofenac sodium, reference compound]
analgesic effect (pain score, walking) [2, 4]: did not show significant effect in comparison with PBS
adverse effects observed ([2]; oral administration, high dose 50 mg/kg): positive fecal occult blood reaction, jaundice-like symptom and body weight loss were observed from the next day
analgesic effect (pain score, walking) ([2]; oral administration, high dose 50 mg/kg (1% suspension in 10% gum arabic, 1 ml/head)): showed analgesic effect
analgesic effect (pain score, walking) ([2]; oral administration, low dose 1 mg/kg (0.02% suspension in 10% gum arabic, 1 ml/head)): the effect was not found in comparison with the PBS intra-articular injection group

Aminoethanol-diclofenac-Introduced Sodium Hyaluronate (DS 14.7%) [Example 39]
analgesic effect (pain score, walking) [2, 4]: showed remarkable analgesic effect

Aminopropanol-acetylsalicylic Acid-Introduced Sodium Hyaluronate [Example 11]
filter pass through test (passed amount per 1 minute) (Filter pass through test): A (2 ml or more was passed)
appearance of the solution [3]: colorless and transparent liquid

Aminopropanol-diclofenac-Introduced Sodium Hyaluronate (65 kDa) Sodium (DS 17.1%) [Example 37]
analgesic effect (pain score, walking) [2, 4]: showed diminished analgesic effect in comparison with the case of the molecular weight of 800,000

Aminopropanol-diclofenac-Introduced Sodium Hyaluronate (DS 4.3%) [Example 35]
analgesic effect (pain score, walking) [2, 4]: showed analgesic effect

Aminopropanol-diclofenac-Introduced Sodium Hyaluronate (DS 9.7%) [Example 36]
analgesic effect (pain score, walking) [2, 4]: showed a remarkable analgesic effect in comparison with PBS

Aminopropanol-diclofenac-Introduced Sodium Hyaluronate [Example 19]
analgesic effect (pain score, walking) ([2]; intra-articular injection 24 hours after 1% silver nitrate, in comparison with PBS, listed as DS 18.2%): showed a remarkable analgesic effect in comparison with PBS
analgesic effect (pain score, walking) ([2]; intra-articular injection 24 hours after 1% silver nitrate, in comparison with PBS, listed as diclofenac-introduced hyaluronic acid derivative): showed the analgesic effect after the administration

Aminopropanol-felbinac-Introduced Hyaluronic Acid [Example 13]
filter pass through test (passed amount per 1 minute) (Filter pass through test): A (2 ml or more was passed)
appearance of the solution [3]: colorless and transparent liquid

Aminopropanol-fenbufen-Introduced Hyaluronic Acid [Example 15]
filter pass through test (passed amount per 1 minute) (Filter pass through test): A (2 ml or more was passed)

Aminopropanol-flurbiprofen-Introduced Sodium Hyaluronate [Example 9]
filter pass through test (passed amount per 1 minute) (Filter pass through test): A (2 ml or more was passed)
appearance of the solution [3]: colorless and transparent liquid

Aminopropanol-ibuprofen-Introduced Sodium Hyaluronate [Example 7]
filter pass through test (passed amount per 1 minute) (Filter pass through test): A (2 ml or more was passed)

Aminopropanol-mefenamic Acid-Introduced Hyaluronic Acid [Example 17]
filter pass through test (passed amount per 1 minute) (Filter pass through test): A (2 ml or more was passed)
appearance of the solution [3]: colorless and transparent liquid

Diaminopropane-diclofenac-Introduced Sodium Hyaluronate (DS 18.1%) [Example 41]
analgesic effect (pain score, walking) [2, 4]: had no effect on the test system of this example
